Measurements taken from publication PMC8351955, “Targeting Mycobacterium tuberculosis response to environmental cues for the development of effective antitubercular drugs” (PLoS Biology, 2021).
Where two headings read alike, the source gives them in different places.

Legend:
[1] = test system: CDC1551(rv2390c′::GFP) reporter Mtb strain, response to high [Cl−]; assay: microbe, parasite or virus in culture; type: cell-based, Mycobacterium tuberculosis; settings: Mycobacterium tuberculosis, 144 h; for activity at 20 µM: read-out: rv2390c'::GFP validation assay NPA% at 20 µM compound
[2] = test system: CDC1551(rv1405c′::GFP) reporter Mtb strain; assay: microbe, parasite or virus in culture; type: cell-based, Mycobacterium tuberculosis; settings: Mycobacterium tuberculosis; for activity at 10 µM: read-out: rv1405c'::GFP secondary assay NPA% at 10 µM compound; for activity at 20 µM: read-out: rv1405c'::GFP secondary assay NPA% at 20 µM compound
[3] = pH 6.4, […], DMSO positive control = 100%, read-out: Primary screen rv2390c'::GFP NPA%
[4] = 10 µM, pH 6.4, 250 mM NaCl, 6 days, read-out: rv2390c'::GFP validation assay NPA% at 10 µM compound

Compound | activity at 10 µM [1, 3] | activity at 10 µM [1, 4] | activity at 20 µM ([1]; pH 6.4, 250 mM NaCl, 6 days) | activity at 10 µM [2] | activity at 20 µM [2]
Clc1cccc2ccc(CN3CCn4cncc4C3)nc12 [RU-0247165, ClC1=C2N=C(CN3CCN4C=NC=C4C3)C=CC2=CC=C1] | 219% | 132 ± 7.5% | 317 ± 6.7% | 226 ± 14.7% | 688.7 ± 3.5%
COc1ccc(F)c(-c2cc3c(cc2C(N)=O)OCO3)c1 [RU-0251853, COC1=CC(=C(F)C=C1)C1=CC2=C(OCO2)C=C1C(N)=O] | 182% | 147 ± 6.1% | 276 ± 8% | 147 ± 32% | 296 ± 65.4%
CCNC(=O)c1ccccc1OCc1nc(-c2ccc3c(c2)OCO3)no1 [RU-0257147, CCNC(=O)C1=C(OCC2=NC(=NO2)C2=CC3=C(OCO3)C=C2)C=CC=C1] | 154% | 92.6 ± 5.8% | 127 ± 7.2% | 82 ± 5.5% | –
O=C(c1nccc2ccccc12)N1CCN(CC2CCCC2)CC1 [RU-0257267, O=C(N1CCN(CC2CCCC2)CC1)C1=C2C=CC=CC2=CC=N1] | 199% | 140.3 ± 0.6% | 254 ± 8.7% | 267 ± 23% | 822 ± 58.1%
CC(C)c1cc(C2CCN(C(=O)c3nc(C(C)C)cs3)CC2)[nH]n1 [RU-0259583, CC(C)C1=CSC(=N1)C(=O)N1CCC(CC1)C1=CC(=NN1)C(C)C] | 156% | 103 ± 2.6% | 130 ± 8.6% | 81.6 ± 6.6% | 99.6 ± 21.4%
COc1ccc2c(CN3CCOCC(CN(C)C)C3)cn(C)c2c1 (stereo not shown) [RU-0260647, COC1=CC=C2C(CN3CCOCC(CN(C)C)C3)=CN(C)C2=C1] | 162% | 114 ± 3.2% | 130 ± 7.6% | 112 ± 2.5% | 130 ± 3.6%
O=C(Cc1ccc2c(c1)CCC2)NCc1ccccc1F [RU-0268882, FC1=C(CNC(=O)CC2=CC3=C(CCC3)C=C2)C=CC=C1] | 175% | 130 ± 7% | 176 ± 16.5% | 103 ± 10.5% | 105 ± 20.7%
Cc1ccc(NC(=O)[C@@H]2CCCN2S(=O)(=O)c2ccccc2F)cc1 [RU-0270461, CC1=CC=C(NC(=O)[C@@H]2CCCN2S(=O)(=O)C2=C(F)C=CC=C2)C=C1] | 151% | 116 ± 6.6% | 168 ± 4% | 98.1 ± 2.7% | 159 ± 7.6%
COc1ccc(NCc2ccc(OC)c(Br)c2)cn1 [RU-0270711, COC1=NC=C(NCC2=CC(Br)=C(OC)C=C2)C=C1] | 162% | 135 ± 4% | 292 ± 6.7% | 227 ± 8.7% | 603 ± 10.5%
Cc1ccc(-n2nc(C)c3c(=O)[nH]c(C(F)(F)F)nc32)cc1 [RU-0271306, CC1=NN(C2=C1C(=O)NC(=N2)C(F)(F)F)C1=CC=C(C)C=C1] | 40.8% | 30.6 ± 2.4% | 36.6 ± 3.4% | 37.3 ± 1.3% | 11.5 ± 4.6%
O=S(=O)(Nc1c(F)cccc1F)c1c(Cl)cccc1Cl [RU-0271471, FC1=CC=CC(F)=C1NS(=O)(=O)C1=C(Cl)C=CC=C1Cl] | 26% | 46.1 ± 5.6% | 25.7 ± 1.9% | 32.2 ± 2% | 13.8 ± 3.7%
O=c1[nH]c(SCC2OCCc3ccccc32)nc2[nH]ncc12 (stereo not shown) [RU-0271878, O=C1NC(SCC2OCCC3=C2C=CC=C3)=NC2=C1C=NN2] | 43.3% | 63.4 ± 5.5% | 24.3 ± 3.8% | 57.7 ± 7% | 24.9 ± 3.6%
CC(NC(=O)C1Cc2cc(Cl)ccc2O1)c1ccc(F)c(F)c1 (stereo not shown) [RU-0272361, CC(NC(=O)C1CC2=C(O1)C=CC(Cl)=C2)C1=CC(F)=C(F)C=C1] | 162% | 152 ± 9% | 215 ± 14% | 83.2 ± 14.8% | 107 ± 4.9%
CC(NC(=O)C1Cc2ccccc2O1)c1ccc(Cl)s1 (stereo not shown) [RU-0272776, CC(NC(=O)C1CC2=C(O1)C=CC=C2)C1=CC=C(Cl)S1] | 231% | 170 ± 3.6% | 192 ± 26.2% | 88.5 ± 5.6% | 105 ± 5.5%
Cc1ccc(C(C)NC(=O)Nc2ccc(C#N)c(Cl)c2)o1 (stereo not shown) [RU-0272807, CC(NC(=O)NC1=CC(Cl)=C(C=C1)C#N)C1=CC=C(C)O1] | 160% | 113 ± 12.8% | 133 ± 5.6% | 90.5 ± 6.1% | 128 ± 12%
Cc1ccccc1OCC(=O)NCc1ccc(C)n1C [RU-0272839, CN1C(C)=CC=C1CNC(=O)COC1=C(C)C=CC=C1] | 215% | 161 ± 13.6% | 204 ± 5.5% | 93 ± 7.6% | 104 ± 5.9%
